Results published in patent US20230149324A1, “COMPOSITIONS COMPRISING THYMOL AND AMINO ACIDS FOR USE IN THE TREATMENT OF INFLAMMATORY OR FUNCTIONAL INTESTINAL DISORDERS” (VETAGRO INTERNATIONAL S.R.L., priority 2020, published 2023).

Legend:
CB1 mRNA = experiment: Gene expression of cannabinoid receptor CB1 in duodenal and ileal mucosa of weaned piglets fed thymol (real-time PCR); assay type: in vivo, pig; conditions: d14, compared to the control group; for CB1 mRNA level, ileum: P=0.0054
Experimental: (§1) At the end of the study, 8 animals from each treatment group were sacrificed, samples were collected, and analysed. Duodenal and ileal mucosal scrapings were collected. The duodenum and ileum were longitudinally cut to expose the mucosa, washed with a phosphate-buffered saline solution to remove mucus and digesta, then scraped gently, packed, immediately frozen in liquid nitrogen and stored at -80° C. until the analyses of gene and protein expression. Gene expression was analysed using the method reported by […] et al. [The Journal of Nutrition. 2011; 141:2139-45]. Duodenal and ileal scraping samples obtained on d14 of the study were disrupted by grinding them in liquid nitrogen with mortar and pestle, and then homogenised using a TissueLyser (Qiagen, Hilden, Germany). Total RNA was isolated using a NucleoSpin® RNA Kit (Macherey-Nagel, Duren, Germany) according to the manufacturer's instructions. Genomic DNA contamination was removed by treating the samples with the deoxyribonuclease supplied in the extraction kit ([…], RNase-free; Macherey-Nagel). The RNA yield and quality were determined spectrophotometrically by measuring the absorbance at 260 and 280 nm (A260 and A280 nm, respectively) (Microvolume Mode with SmartPath® Technology, Denovix). […] The average threshold cycle (CT) was determined for each gene of interest, and the geometric average was calculated for HK by assuming that CT is the number of cycles required to reach a fixed arbitrary threshold. Delta CT was calculated, then a modification of the 2^-ΔΔCT method [Livak K J, et al., Methods 2001; 25:402-8] was used to analyse the relative expression (fold changes), which was calculated relative to the control group. […] Animals were blocked in a completely randomised design and data were analysed using GraphPad Prism® software (GraphPad Software, Inc., La Jolla, Calif., USA). Data were analysed using one-way ANOVA followed by Tukey's post hoc test to detect differences among treatments. […]

CB2 mRNA = experiment: Gene expression of cannabinoid receptor CB2 in duodenal and ileal mucosa of weaned piglets fed thymol (real-time PCR); assay type: in vivo, pig; conditions: d14, compared to the control group; for CB2 mRNA level, duodenum: P=0.004; for CB2 mRNA level, ileum: P=0.0162
Experimental: as §1, with “Denovix). One microgram of RNA was reverse transcribed using the iScript cDNA Synthesis Kit (Bio-Rad Laboratories Inc., Hercules, Calif., USA) according to the manufacturer's instructions. Real-time PCR was performed using an iCycler Thermal Cycler system and SybrGreen Supermix (Bio-Rad Laboratories Inc.). The thermocycling protocol provided for an initial denaturation step for 1 minute and 30 seconds at 95° C., followed by 40 denaturation cycles at 95° C. for 15 seconds, and 30 seconds of annealing and extension at 60° C. After amplification, a melt curve analysis was performed for all samples, with slow heating from 55° C. to 95° C. at a rate of 0.5° C./s to validate the absence of non-specific products.” for “Denovix).”

FAAH mRNA = experiment: Gene expression of ECS enzyme FAAH in duodenal and ileal mucosa of weaned piglets fed thymol (real-time PCR); assay type: in vivo, pig
Experimental: (§2) At the end of the study, 8 animals from each treatment group were sacrificed, samples were collected, and analysed. Duodenal and ileal mucosal scrapings were collected. The duodenum and ileum were longitudinally cut to expose the mucosa, washed with a phosphate-buffered saline solution to remove mucus and digesta, then scraped gently, packed, immediately frozen in liquid nitrogen and stored at -80° C. until the analyses of gene and protein expression. Gene expression was analysed using the method reported by […] et al. [The Journal of Nutrition. 2011; 141:2139-45]. […] The RNA yield and quality were determined spectrophotometrically by measuring the absorbance at 260 and 280 nm (A260 and A280 nm, respectively) (Microvolume Mode with SmartPath® Technology, Denovix). […] The average threshold cycle (CT) was determined for each gene of interest, and the geometric average was calculated for HK by assuming that CT is the number of cycles required to reach a fixed arbitrary threshold. Delta CT was calculated, then a modification of the 2^-ΔΔCT method [Livak K J, et al., Methods 2001; 25:402-8] was used to analyse the relative expression (fold changes), which was calculated relative to the control group. […] Animals were blocked in a completely randomised design and data were analysed using GraphPad Prism® software (GraphPad Software, Inc., La Jolla, Calif., USA). […]

TRPV1 mRNA = experiment: Gene expression of gut chemosensing marker TRPV1 in duodenal and ileal mucosa of weaned piglets fed thymol (real-time PCR); assay type: in vivo, pig; conditions: for TRPV1 mRNA level, ileum: d14, compared to the control group, P=0.0183
Experimental: as §1

[1] = system: OR1G1 (Olfactory receptor 1G1) mRNA; experiment: Gene expression of gut chemosensing marker OR1G1 in duodenal and ileal mucosa of weaned piglets fed thymol (real-time PCR); assay type: in vivo, pig; conditions: d14, compared to the control group
Experimental: as §2

[2] = piglets, 14-day experiment, up to 510 mg thymol/kg feed
Experimental: […] piglets (Duroc—Large White) weaned at 28 days of age and with a body weight (BW) of 7.71±1.00 kg were divided into 40 pens (4 piglets per pen, castrated males and females were placed in separate pens) and randomly assigned to one of the following experimental groups (n=32): control group fed with the basal diet (T1), a group fed with the basal diet supplemented with 25.5 mg of thymol/kg feed (T2), a group fed with the basal diet supplemented with 51 mg of thymol/kg feed (T3), a group fed with the basal diet supplemented with 153 mg of thymol/kg feed (T4) and a group fed with the basal diet supplemented with 510 mg of thymol/kg feed (T5). Thymol was provided in a form embedded (microencapsulated) in a lipid matrix (Vetagro SpA, Reggio Emilia, Italy). Concentrations of thymol were selected to meet or exceed the upper limit of inclusion in food and feed established by the European Agency for the Evaluation of Medicinal Products and for the feed. […] The health condition of the animals was monitored during the study. […] Growth parameters, such as FI, ADFI, ADG and F:G (FI—feed intake; ADFI—Average daily feed intake; ADG—Average daily gain; F:G—Feed to gain ratio), were measured in the animals housed in each pen on day 14 (d14) of the experiment.

[3] = group T4, 153 mg of thymol/kg feed
[4] = group T5, 510 mg of thymol/kg feed

Cc1ccc(C(C)C)c(O)c1 [thymol]
CB1 mRNA level, ileum (CB1 mRNA; [3]): significantly increased
CB1 mRNA level, ileum (CB1 mRNA; [4]): significantly increased
CB1 mRNA level, duodenum (CB1 mRNA; group T5, 510 mg of thymol/kg feed, P=0.0209): significantly increased
CB2 mRNA level, duodenum (CB2 mRNA; [3]): Significantly increased
CB2 mRNA level, ileum (CB2 mRNA; [3]): Significantly increased
CB2 mRNA level, duodenum (CB2 mRNA; [4]): Significantly increased
CB2 mRNA level, ileum (CB2 mRNA; [4]): Significantly increased
FAAH mRNA level, ileum (FAAH mRNA; group T4, 153 mg of thymol/kg feed, d14, compared to the control group, P=0.0028): significantly increased
FAAH mRNA level, duodenum (FAAH mRNA; thymol groups T2-T5 (25.5-510 mg/kg feed), d14): Differences in FAAH mRNA levels were not observed
TRPV1 mRNA level, ileum (TRPV1 mRNA; group T4, 153 mg thymol/kg feed): increased
TRPV1 mRNA level, ileum (TRPV1 mRNA; group T5, 510 mg thymol/kg feed): increased
TRPV1 mRNA level, duodenum (TRPV1 mRNA; group T5, 510 mg thymol/kg of feed, d14, P=0.0382): increased
OR1G1 mRNA level, ileum ([1]; group T4, 153 mg thymol/kg feed, P=0.0235): expressed at higher levels
OR1G1 mRNA level, duodenum ([1]; group T5, 510 mg thymol/kg feed, P=0.0210): expressed at higher levels
mortality [2]: no mortality was recorded
